Laboratory results taken from PubChem BioAssay (NCI).
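In this assay, cells in 96-well plates receive the compound at five concentrations for 48 hours. Endpoints are linearly interpolated between the surrounding concentrations. Here, GI50 denotes the concentration required for 50% inhibition of growth. TGI denotes the concentration required for complete inhibition of growth.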

Legend:
Assay in all cases: NCI anticancer screen, dose series, 48 h
[1] = tested on: 786-0 renal
[2] = tested on: A498 renal
[3] = tested on: A549 NSCLC
[4] = tested on: ACHN renal
[5] = tested on: BT-549 breast
[6] = tested on: CAKI-1 renal
[7] = tested on: CCRF-CEM leukemia
[8] = tested on: COLO 205 colon
[9] = tested on: DU-145 prostate
[10] = tested on: EKVX NSCLC
[11] = tested on: HCC-2998 colon
[12] = tested on: HCT-116 colon
[13] = tested on: HCT-15 colon
[14] = tested on: HL-60(TB) leukemia
[15] = tested on: HOP-62 NSCLC
[16] = tested on: HOP-92 NSCLC
[17] = tested on: HS 578T breast
[18] = tested on: HT29 colon
[19] = tested on: IGROV1 ovarian
[20] = tested on: K-562 leukemia
[21] = tested on: KM12 colon
[22] = tested on: LOX IMVI melanoma
[23] = tested on: M14 melanoma
[24] = tested on: MALME-3M melanoma
[25] = tested on: MCF7 breast
[26] = tested on: MDA-MB-231 breast
[27] = tested on: MDA-MB-435
[28] = tested on: MDA-MB-468 breast
[29] = tested on: MOLT-4 leukemia
[30] = tested on: NCI-H226 lung
[31] = tested on: NCI-H23 lung
[32] = tested on: NCI-H460 lung
[33] = tested on: NCI-H522 lung
[34] = tested on: NCI/ADR-RES ovarian
[35] = tested on: OVCAR-3 ovarian
[36] = tested on: OVCAR-4 ovarian
[37] = tested on: OVCAR-5 ovarian
[38] = tested on: OVCAR-8 ovarian
[39] = tested on: PC-3 prostate
[40] = tested on: RPMI-8226 leukemia
[41] = tested on: RXF 393 renal
[42] = tested on: SF-268 CNS
[43] = tested on: SF-295 CNS
[44] = tested on: SF-539 CNS
[45] = tested on: SK-MEL-2 melanoma
[46] = tested on: SK-MEL-28 melanoma
[47] = tested on: SK-MEL-5 melanoma
[48] = tested on: SK-OV-3 ovarian
[49] = tested on: SN12C renal
[50] = tested on: SNB-19 CNS
[51] = tested on: SNB-75 CNS
[52] = tested on: SR leukemia
[53] = tested on: SW-620 colon
[54] = tested on: T-47D breast
[55] = tested on: TK-10 renal
[56] = tested on: U251 CNS
[57] = tested on: UACC-257 melanoma
[58] = tested on: UACC-62 melanoma
[59] = tested on: UO-31 renal

SMILES: COc1ccc(Cc2nn(CC(=O)N/N=C/c3ccc(F)cc3)c(=O)c3c(C)noc23)cc1
- GI50 [1]: 2.12 µM
- TGI [1]: 4.63 µM
- GI50 [2]: 1.83 µM
- TGI [2]: 3.73 µM
- GI50 [3]: 3.02 µM
- TGI [3]: 10.1 µM
- GI50 [4]: 1.95 µM
- TGI [4]: 3.83 µM
- GI50 [5]: 12.2 µM
- TGI [5]: 35.7 µM
- GI50 [6]: 2.02 µM
- TGI [6]: 4.62 µM
- GI50 [7]: 9.65 µM
- TGI [7]: > 100 µM
- GI50 [8]: 8.3 µM
- TGI [8]: 35.2 µM
- GI50 [9]: 5.87 µM
- TGI [9]: 18.8 µM
- GI50 [10]: 4.39 µM
- TGI [10]: 21.4 µM
- GI50 [11]: 5.46 µM
- TGI [11]: 19.7 µM
- GI50 [12]: 2.47 µM
- TGI [12]: 6.77 µM
- GI50 [13]: 9.27 µM
- TGI [13]: 89.3 µM
- GI50 [14]: 68.8 µM
- TGI [14]: > 100 µM
- GI50 [15]: 1.93 µM
- TGI [15]: 4.04 µM
- GI50 [16]: 2.34 µM
- TGI [16]: 6.97 µM
- GI50 [17]: 3.19 µM
- TGI [17]: 15.1 µM
- GI50 [18]: 10.9 µM
- TGI [18]: 25.5 µM
- GI50 [19]: 7.58 µM
- TGI [19]: 22.8 µM
- GI50 [20]: 31.4 µM
- TGI [20]: > 100 µM
- GI50 [21]: 26.5 µM
- TGI [21]: > 100 µM
- GI50 [22]: 4.65 µM
- TGI [22]: 22 µM
- GI50 [23]: 8.67 µM
- TGI [23]: 38 µM
- GI50 [24]: 3.63 µM
- TGI [24]: 15 µM
- GI50 [25]: 8.44 µM
- TGI [25]: 35.1 µM
- GI50 [26]: 5.66 µM
- TGI [26]: 19.5 µM
- GI50 [27]: 9.52 µM
- TGI [27]: 31.3 µM
- GI50 [28]: 3.87 µM
- TGI [28]: 17.7 µM
- GI50 [29]: 22.6 µM
- TGI [29]: > 100 µM
- GI50 [30]: 1.8 µM
- TGI [30]: 4.61 µM
- GI50 [31]: 6.72 µM
- TGI [31]: 20.9 µM
- GI50 [32]: 3.27 µM
- TGI [32]: 11.3 µM
- GI50 [33]: 10.4 µM
- TGI [33]: 31.2 µM
- GI50 [34]: 4.03 µM
- TGI [34]: 17.2 µM
- GI50 [35]: 3.44 µM
- TGI [35]: 11.2 µM
- GI50 [36]: 1.8 µM
- TGI [36]: 3.47 µM
- GI50 [37]: 7.18 µM
- TGI [37]: 25.1 µM
- GI50 [38]: 6.96 µM
- TGI [38]: 60.6 µM
- GI50 [39]: 5.43 µM
- TGI [39]: 23.4 µM
- GI50 [40]: 9.01 µM
- TGI [40]: > 100 µM
- GI50 [41]: 2.42 µM
- TGI [41]: 6.47 µM
- GI50 [42]: 5.81 µM
- TGI [42]: 36.9 µM
- GI50 [43]: 2.07 µM
- TGI [43]: 4.86 µM
- GI50 [44]: 10.5 µM
- TGI [44]: 22.8 µM
- GI50 [45]: 12.1 µM
- TGI [45]: 29.5 µM
- GI50 [46]: 6.9 µM
- TGI [46]: 21.8 µM
- GI50 [47]: 12.8 µM
- TGI [47]: 33.4 µM
- GI50 [48]: 1.99 µM
- TGI [48]: 3.97 µM
- GI50 [49]: 2.36 µM
- TGI [49]: 6.08 µM
- GI50 [50]: 4.48 µM
- TGI [50]: 20.4 µM
- GI50 [51]: 2 µM
- TGI [51]: 4.49 µM
- GI50 [52]: 16.1 µM
- TGI [52]: > 100 µM
- GI50 [53]: 5.59 µM
- TGI [53]: 22.9 µM
- GI50 [54]: 2.24 µM
- TGI [54]: 5.88 µM
- GI50 [55]: 2.4 µM
- TGI [55]: 6.39 µM
- GI50 [56]: 2.65 µM
- TGI [56]: 8.07 µM
- GI50 [57]: 6.33 µM
- TGI [57]: 29.1 µM
- GI50 [58]: 8.63 µM
- TGI [58]: 25.1 µM
- GI50 [59]: 1.79 µM
- TGI [59]: 3.84 µM
